Data from paper PMC9697930 (International Journal of Molecular Sciences, 2022).

How the values were obtained:
A431-ABCB1 = assay: MTT proliferation assay; type: cell-based; conditions: Homo sapiens, comparative MTT, 48 h, read-out: antiproliferative IC50
Protocol: (§1) The viability MTT assay was employed in several experimental sets, including induction studies, comparative viability assays, and drug combinations. First, 1.3 × 10^4 (MDCKII sublines), 1.2 × 10^4 (A431 sublines), 1.5 × 10^4 (MCF-7), and 1.0 × 10^4 (primary NSCLC explants) cells were seeded in 96-well plates. After seeding, cells were left to refresh in incubator for 24 h. Secondly, the medium was removed, and the serial dilutions of the drugs or drug combinations were added to the cells. Next to these variants, a medium with 40% DMSO and vehicle-containing media were tested as nonviable and unaffected viability controls, respectively. After an additional 48 h of incubation, the cells were washed with 1 × PBS and then treated with 1 mg/mL MTT solution in Opti-MEM. Subsequently, cells were incubated for 60 min under standard conditions. After MTT treatment, generated formazan crystals were solubilized with DMSO for 10 min. Wavelengths of 570 nm (formazan) and 690 nm (background) were used for absorbance measurements using a microplate reader Infinite 200 Pro NanoQuant (Tecan, Männedorf, Switzerland).

MCF-7 cells = assay: MTT viability experiment; type: cell-based, Human; conditions: 0.5 µM, 48 h
Protocol: as §1

ABCG2 = target: T1, ABCG2 (Homo sapiens, UniProt Q9UNQ0); assay: Accumulation assay with mitoxantrone in MDCKII-ABCG2 cells; type: cell-based; conditions: normalized to Ko143, read-out: ABCG2 inhibition IC50
T1 construct: expressed in transfected cells; host or cells: MDCKII (canine kidney) subline MDCKII-ABCG2, gift of Dr. Alfred Schinkel
T1 sequence (Q9UNQ0 whole entry): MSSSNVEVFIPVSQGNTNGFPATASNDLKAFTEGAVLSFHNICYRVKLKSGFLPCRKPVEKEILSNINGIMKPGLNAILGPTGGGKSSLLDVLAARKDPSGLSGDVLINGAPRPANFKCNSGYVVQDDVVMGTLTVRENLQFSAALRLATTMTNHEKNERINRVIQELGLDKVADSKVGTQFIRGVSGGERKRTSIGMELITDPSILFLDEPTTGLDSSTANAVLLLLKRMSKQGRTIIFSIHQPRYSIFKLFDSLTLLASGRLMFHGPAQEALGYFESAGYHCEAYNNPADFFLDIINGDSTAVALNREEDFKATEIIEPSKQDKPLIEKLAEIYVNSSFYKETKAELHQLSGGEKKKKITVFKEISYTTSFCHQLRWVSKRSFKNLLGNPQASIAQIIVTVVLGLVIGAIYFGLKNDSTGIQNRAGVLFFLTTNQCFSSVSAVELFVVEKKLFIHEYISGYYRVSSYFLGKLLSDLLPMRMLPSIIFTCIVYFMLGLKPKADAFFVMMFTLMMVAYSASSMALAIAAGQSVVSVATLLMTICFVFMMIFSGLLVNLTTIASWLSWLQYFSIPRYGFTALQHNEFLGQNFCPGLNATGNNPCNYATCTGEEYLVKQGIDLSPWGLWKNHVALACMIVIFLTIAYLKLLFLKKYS
Protocol: (§2) The conduction of accumulation assays followed the slightly changed protocol described previously. In the study, MDCKII-par, MDCKII-ABCB1, MDCKII-ABCC1, MDCKII-ABCG2, and primary explants were seeded into 12-well plates in variant densities, 22.0 × 10^4, 15.0 × 10^4, 25.0 × 10^4, 22.0 × 10^4, and 15.0 × 10^4 cells/well, respectively. After 24 h incubation, two washing steps with 1 × PBS were applied. […] The cells were then incubated under standard conditions for 30 min. Next steps included placing the plates on ice, washing the cells with ice-cold 1 × PBS two-times, and detaching the cells with the ice-cold 10 × trypsin without phenol red. Following trypsinization, cells were resuspended in 1 × PBS containing 2% FBS. Subsequently, cell suspensions were transferred into the test tubes and kept on ice. The fluorescence in cells was measured immediately after the collection of their suspensions using flow cytometer Sony SA3800 Spectral Cell Analyzer (Sony Biotechnology, San Jose, CA, USA). SA3800 software (Sony Biotechnology, San Jose, CA, USA) was used to evaluate the data.

[1] = system: patient-derived NSCLC explants; assay: Accumulation of mitoxantrone and daunorubicin in ex vivo explants; type: cell-based, human; conditions: 5 µM talazoparib, 2 µM Ko143, 25 µM MK571
From the text: NSCLC specimens from lung lobectomies were donated by patients at the Department of Cardiac Surgery, University Hospital Hradec Kralove. All the patients signed the informed consent; its formulation was approved by the University Hospital Ethics Committee (study no. 202002 […]). The NSCLC malignant tissues were excised from lung lobes by the pathologist immediately after the surgery. Then, NSCLC primary explants were generated according to the established protocols. First, the tumor tissues were cut into small pieces by scalpel. Then, the cells were released from the tissue by the 0.1% collagenase in 1 × MEM at 37 °C for 30 min. Subsequently, 1% BSA in MEM (v/v) was added, and cells were filtered through a 40 μm pore-sized cell strainer. The resulting solution was centrifuged at 200 × g for 5 min and the pellet was resuspended in 1% BSA in MEM. The centrifugation (100 × g for 10 min) in Ficoll Paque Plus was used for removing biological impurities such as cell debris, etc. Next, the NSCLC cells were collected and transferred into c-based media. The additional centrifugation (200 × g for 5 min) was applied to remove the traces of Ficoll solution. […] The fluorescence in cells was measured immediately after the collection of their suspensions using flow cytometer Sony SA3800 Spectral Cell Analyzer (Sony Biotechnology, San Jose, CA, USA). […]

MDCKII-par cells = assay: Accumulation assay in control parent cells; type: cell-based, Canine
Protocol: as §2

ABCC1 [2] = target: T2, ABCC1 (Homo sapiens, UniProt P33527); assay: Accumulation assay with daunorubicin in MDCKII-ABCC1 cells; type: cell-based; set-up: expressed in transfected cells; host or cells: MDCKII (canine kidney) subline MDCKII-ABCC1, gift of Dr. Alfred Schinkel; conditions: read-out: ABCC1 inhibition IC50
T2 sequence (P33527 whole entry): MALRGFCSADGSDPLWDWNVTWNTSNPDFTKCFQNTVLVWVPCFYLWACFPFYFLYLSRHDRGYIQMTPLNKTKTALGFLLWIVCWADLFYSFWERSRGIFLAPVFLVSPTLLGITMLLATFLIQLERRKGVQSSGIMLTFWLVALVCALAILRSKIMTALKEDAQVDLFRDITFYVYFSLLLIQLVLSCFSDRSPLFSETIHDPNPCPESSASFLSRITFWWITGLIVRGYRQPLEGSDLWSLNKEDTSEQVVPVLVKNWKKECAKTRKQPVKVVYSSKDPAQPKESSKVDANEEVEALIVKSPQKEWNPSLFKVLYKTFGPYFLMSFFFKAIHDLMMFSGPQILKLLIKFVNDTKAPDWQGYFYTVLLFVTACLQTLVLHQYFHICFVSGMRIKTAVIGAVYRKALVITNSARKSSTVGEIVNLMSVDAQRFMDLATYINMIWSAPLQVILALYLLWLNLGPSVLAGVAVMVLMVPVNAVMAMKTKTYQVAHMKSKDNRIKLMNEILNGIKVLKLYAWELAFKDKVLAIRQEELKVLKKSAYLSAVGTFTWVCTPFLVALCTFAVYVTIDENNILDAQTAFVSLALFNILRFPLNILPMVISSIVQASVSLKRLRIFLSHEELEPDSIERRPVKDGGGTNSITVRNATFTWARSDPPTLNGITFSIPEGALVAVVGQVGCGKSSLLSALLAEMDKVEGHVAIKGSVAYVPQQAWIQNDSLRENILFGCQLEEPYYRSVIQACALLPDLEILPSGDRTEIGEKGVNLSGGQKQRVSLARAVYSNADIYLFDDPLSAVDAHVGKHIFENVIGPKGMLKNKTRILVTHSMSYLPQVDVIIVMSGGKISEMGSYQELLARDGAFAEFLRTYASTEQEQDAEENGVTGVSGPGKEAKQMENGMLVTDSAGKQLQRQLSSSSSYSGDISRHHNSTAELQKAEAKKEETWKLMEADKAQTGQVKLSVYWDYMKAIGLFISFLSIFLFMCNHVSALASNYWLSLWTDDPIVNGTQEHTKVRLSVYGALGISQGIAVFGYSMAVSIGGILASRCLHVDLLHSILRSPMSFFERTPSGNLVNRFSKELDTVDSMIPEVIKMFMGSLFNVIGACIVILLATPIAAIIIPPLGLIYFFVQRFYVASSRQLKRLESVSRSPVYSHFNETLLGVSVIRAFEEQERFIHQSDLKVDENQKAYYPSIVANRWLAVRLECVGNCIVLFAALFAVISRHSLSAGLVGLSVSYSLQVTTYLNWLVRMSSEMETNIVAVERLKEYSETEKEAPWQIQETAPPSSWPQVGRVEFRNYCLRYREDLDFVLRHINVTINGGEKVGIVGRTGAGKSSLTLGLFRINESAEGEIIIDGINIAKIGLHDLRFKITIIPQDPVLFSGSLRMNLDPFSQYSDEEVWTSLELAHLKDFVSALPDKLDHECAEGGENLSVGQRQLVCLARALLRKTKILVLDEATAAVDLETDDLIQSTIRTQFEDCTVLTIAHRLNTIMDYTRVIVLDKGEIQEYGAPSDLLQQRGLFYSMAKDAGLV
Protocol: as §2

ABCC1 [3] = target: T2, ABCC1; conditions: 12-days exposure; MCF-10A; cited from earlier work
[4] = in-human mass-balance study; cited from earlier work
MTT proliferation assay = type: cell-based, Canine; conditions: dog, MDCKII-ABCB1 cells, comparative MTT, read-out: antiproliferative IC50
Protocol: as §1

## Cn1ncnc1[C@H]1c2n[nH]c(=O)c3cc(F)cc(c23)N[C@@H]1c1ccc(F)cc1 [talazoparib, Talazoparib]
A431-ABCB1
  IC50: 92.7 µM
MCF-7 cells
  toxicity in MTT viability experiment: negligibly toxic
ABCG2
  IC50: 11.2 µM
[1]; primary cultures with high expression of ABCG2/ABCC1
  effect on cytostatic efflux / accumulation: significantly inhibited cytostatic efflux
[1]; primary cultures with low expression of ABCG2/ABCC1
  effect on cytostatic efflux / accumulation: insignificant accumulation changes
MDCKII-par cells
  effect on accumulations of probe substrate drugs: did not exhibit any significant effects
ABCC1 [2]
  IC50: 5.62 µM
ABCC1 [3]
  effect on ABCC1 mRNA: upregulate
  effect on ABCC1 protein level: unchanged
[4]
  excretion: a major fraction of the dose is excreted renally and biliary in unchanged form
  extent of metabolism: minimally metabolized
MTT proliferation assay
  IC50 at 48 h: 67.5 µM
